Values after ≈ are worked out from the molar mass of the structure shown.
Legend:
[1] = test system: pathogenic bacteria, especially gram-positive bacteria and Mycoplasma species; test: Inhibition of growth of pathogenic organisms (general statement); format: cell-based
From the text: (§1) Table 8 summarizes the minimal inhibitory concentrations (MIC), as measured by standard agar-dilution assays, at which DOMM (free base) inhibits certain bacteria.

[2] = test system: Streptomyces fradiae ATCC 31664; test: Antibiotic sensitivity, sensitivity discs on seeded agar plates; format: cell-based; settings: discs: chloramphenicol, cephaloridine, tetracycline, vancomycin 30 μg, erythromycin 15 μg, lincomycin 2 μg, polymyxin B 300 units, streptomycin 10 μg; note: key: -: resistance (no zones of inhibition); +: sensitivity (zones of inhibition); trace of sensitivity
From the text: (§2) ^a Determined by using sensitivity discs padded onto seededagar

[3] = Electrometric titration (pKa); format: physicochemical; settings: 66% aqueous dimethylformamide
From the text: Electrometric titration of DOMM in 66% aqueous dimethylformamide indicates the presence of a titratable group with a pKa value of about 7.14.

[4] = test system: Streptococcus pyogenes C203; test: Experimental infection in mice, ED50; format: in vivo; settings: sc, subcutaneous, two doses, bacterial challenge (X LD50) = 133, read-out: Subcutaneous ED50 (effective dose to protect 50% of the test animals)
Method: (§3) The DOMM compounds have shown in vivo antimicrobial activity against experimental bacterial infections. When two doses of test compound were administered to mice in experimental infections, the activity observed was measured as an ED50 value [effective dose in mg/kg to protect 50% of the test animals: see Warren Wick, et al., J. Bacteriol. 81, 233-235 (1961)].

[5] = test system: Streptococcus pneumoniae Park I; test: Experimental infection in mice, ED50; format: in vivo; settings: sc, subcutaneous, two doses, bacterial challenge (X LD50) = 41.2, read-out: Subcutaneous ED50 (effective dose to protect 50% of the test animals)
Method: as §3

[6] = test system: Staphylococcus aureus 3055; test: Experimental infection in mice, ED50; format: in vivo; settings: sc, subcutaneous, two doses, bacterial challenge (X LD50) = 139, read-out: Subcutaneous ED50 (effective dose to protect 50% of the test animals)
Method: as §3

[7] = test system: Pasteurella multocida; test: Standard agar-dilution MIC assay; format: cell-based; settings: DOMM free base
From the text: as §1

[8] = test system: Mycoplasma hyorhinis; test: Standard agar-dilution MIC assay; format: cell-based; settings: DOMM free base
From the text: as §1

[9] = test system: Mycoplasma gallisepticum; test: Standard agar-dilution MIC assay; format: cell-based; settings: Mycoplasmoides gallisepticum, DOMM free base
From the text: as §1

[10] = test system: Streptococcus pyogenes C203; test: Standard agar-dilution MIC assay; format: cell-based; settings: DOMM free base
From the text: as §1

[11] = test system: Streptococcus pneumoniae Park I; test: Standard agar-dilution MIC assay; format: cell-based; settings: DOMM free base
From the text: as §1

[12] = test system: Pasteurella hemolytica; test: Standard agar-dilution MIC assay; format: cell-based; settings: DOMM free base
From the text: as §1

[13] = test system: Mycoplasma hyopneumoniae; test: Standard agar-dilution MIC assay; format: cell-based; settings: Mesomycoplasma hyopneumoniae, DOMM free base
From the text: as §1

[14] = test system: Streptococcus sp. (Group D) 282; test: Standard agar-dilution MIC assay; format: cell-based; settings: DOMM free base
From the text: as §1

[15] = Solubility; format: physicochemical
[16] = test system: Streptomyces fradiae E2724.1; test: Antibiotic sensitivity, sensitivity discs on seeded agar plates; format: cell-based; settings: discs: chloramphenicol, cephaloridine, tetracycline, vancomycin 30 μg, erythromycin 15 μg, lincomycin 2 μg, polymyxin B 300 units, streptomycin 10 μg; note: key: -: resistance (no zones of inhibition); +: sensitivity (zones of inhibition); trace of sensitivity
From the text: as §2

Compound: CCC1OC(=O)CC(O)C(C)C(OC2OC(C)C(OC3CC(C)(O)C(O)C(C)O3)C(N(C)C)C2O)C(CCO)CC(C)C(=O)C=CC(C)=CC1COC1OC(C)C(O)C(O)C1O (centres unmarked) [dihydro-DOMM, 20-dihydro-2'"-O-demethylmacrocin]
- growth inhibition / antibacterial activity (in words) [1]: especially active against grampositive microorganisms and Mycoplasma species

Compound: Polymyxin B
- Antibiotic sensitivity [2]: +

Compound: CCC1OC(=O)CC(O)C(C)C(OC2OC(C)C(OC3CC(C)(O)C(O)C(C)O3)C(N(C)C)C2O)C(CC=O)CC(C)C(=O)C=CC(C)=CC1COC1OC(C)C(O)C(O)C1O (centres unmarked) [DOMM, 2'"-O-demethylmacrocin]
- pKa value [3]: about 7.14
- ED50 [4]: 1.1 mg/kg
- ED50 [5]: 37.5 mg/kg
- ED50 [6]: 3.8 mg/kg
- MIC [7]: 12.5 µg/mL (≈ 14.1 µM)
- MIC [8]: 3.12 µg/mL (≈ 3.51 µM)
- MIC [9]: 0.78 µg/mL (≈ 0.878 µM)
- MIC [10]: 0.25 µg/mL (≈ 0.282 µM)
- MIC [11]: 0.25 µg/mL (≈ 0.282 µM)
- MIC [12]: 50 µg/mL (≈ 56.3 µM)
- MIC [13]: 0.78 µg/mL (≈ 0.878 µM)
- MIC [14]: 4 µg/mL (≈ 4.5 µM)
- growth inhibition / antibacterial activity (in words) [1]: especially active against grampositive microorganisms and Mycoplasma species
- solubility in most polar organic solvents ([15]; acetone, methanol, ethanol, chloroform, dimethylformamide and dimethyl sulfoxide): soluble
- solubility in water ([15]; water): soluble

Compound: CCC[C@@H]1C[C@@H](C(=O)N[C@@H]([C@H]2O[C@H](SC)[C@H](O)[C@@H](O)[C@H]2O)[C@@H](C)O)N(C)C1 [Lincomycin]
- Antibiotic sensitivity [16]: -
- Antibiotic sensitivity [2]: -

Compound: CN[C@H](CC(C)C)C(=O)N[C@H]1C(=O)N[C@@H](CC(N)=O)C(=O)N[C@H]2C(=O)N[C@H]3C(=O)N[C@H](C(=O)N[C@H](C(=O)O)c4cc(O)cc(O)c4-c4cc3ccc4O)[C@H](O)c3ccc(c(Cl)c3)Oc3cc2cc(c3O[C@@H]2O[C@H](CO)[C@@H](O)[C@H](O)[C@H]2O[C@H]2C[C@](C)(N)[C@H](O)[C@H](C)O2)Oc2ccc(cc2Cl)[C@H]1O [Vancomycin]
- Antibiotic sensitivity [16]: +
- Antibiotic sensitivity [2]: +

Compound: O=C(N[C@H](CO)[C@H](O)c1ccc([N+](=O)[O-])cc1)C(Cl)Cl [Chloramphenicol]
- Antibiotic sensitivity [16]: +
- Antibiotic sensitivity [2]: +

Compound: CN(C)C1C(=O)C(C(N)=O)=C(O)C2(O)C(=O)C3=C(O)c4c(O)cccc4C(C)(O)C3CC12 (centres unmarked) [Tetracycline]
- Antibiotic sensitivity [16]: +
- Antibiotic sensitivity [2]: +

Compound: O=C(Cc1cccs1)N[C@@H]1C(=O)N2C(C(=O)[O-])=C(C[n+]3ccccc3)CS[C@H]12 [Cephaloridine]
- Antibiotic sensitivity [16]: +
- Antibiotic sensitivity [2]: +

Compound: [H]/N=C(/N)N[C@H]1[C@H](O)[C@@H](O)[C@H](O[C@@H]2O[C@@H](C)[C@](O)(C=O)[C@H]2O[C@@H]2O[C@@H](CO)[C@H](O)[C@@H](O)[C@@H]2NC)[C@@H](N/C(N)=N\[H])[C@@H]1O [Streptomycin]
- Antibiotic sensitivity [16]: +
- Antibiotic sensitivity [2]: +

From patent publication US4486584A, “Demethylmacrocin compounds and derivatives thereof” (Eli Lilly and Company, priority 1982, dated 1984)
